# Data taken from patent US20070099963A1, “Nematicidal compositions and methods” (priority 2005, published 2007).
# Assays:
# Thrips [1] = test: Thrips damage rating on cotton plants (Example 2); format: in vivo; details: Fibermax cotton variety 960, rating 1 = no damage, 5 = plant dead; for Thrips Damage Rating 3 weeks: 3 weeks after planting; for Thrips Damage Rating 4 weeks: 4 weeks after planting
# Source text: This example illustrates the effect of the compositions from Table 1 for cotton plants planted in soil known to have nematode (Rotylenchulus reniformis) pressure. FIGS. 4 and 5 illustrate the Thrips damage ratings at three and four weeks, respectively, after planting. FIG. 6 illustrates the plant height seven weeks after planting. The cotton plants utilized were commercially available Fibermax cotton variety 960.
# Thrips [2] = test: Thrips damage rating on cotton plants (Example 1); format: in vivo; details: cotton Delta and Pineland variety 555, rating 1 = no damage, 5 = plant dead; for Thrips Damage Rating 3 weeks: 3 weeks after planting; for Thrips Damage Rating 4 weeks: 4 weeks after planting
# Source text: This example illustrates the effect of a composition of the invention on cotton plant damage and plant height for cotton plants planted in soil known to have nematode (Rotylenchulus reniformis) pressure. The cotton plants utilized were commercially available Delta and Pineland variety 555.
# The compositions described in Table 1 below were applied either as a seed treatment (Samples B, C, and E-G) or in furrow (Sample D) at the respective application rates set forth in Table 1.
SMILES,Thrips Damage Rating 3 weeks (Thrips [1]),Thrips Damage Rating 4 weeks (Thrips [1]),Thrips Damage Rating 3 weeks (Thrips [2]),Thrips Damage Rating 4 weeks (Thrips [2])
"O=[N+]([O-])NC1=NCCN1Cc1ccc(Cl)nc1 [B, imidacloprid]",2.63,2.5,2,2.3
"O=[N+]([O-])NC1=NCCN1Cc1ccc(Cl)nc1 [E, imidacloprid]",2.88,3,2.25,2.4
"CNC(=O)O/N=C/C(C)(C)SC [Sample D, aldicarb]",2.5,2.1,1.13,1.5
